US6274715A, “Tricyclic erythromycin derivatives” (priority 1997, dated 2001)
In brackets after ≈: the same amount, converted by molar mass.

How the values were obtained:
Type in all cases: cell-based
[1] = tested on: STREPTOCOCCUS BOVIS A-5169; assay: In vitro antibacterial activity, MIC, BHI agar dilution; settings: S. bovis A-5169, unit assumed
[2] = tested on: ESCHERICHIA COLI H560; assay: as above; settings: E. coli H560, unit assumed
[3] = tested on: STAPHYLOCOCCUS AUREUS CMX 642A; assay: as above; settings: S. aureus CMX 642A, unit assumed
[4] = tested on: CANDIDA ALBICANS CCH 442; assay: as above; settings: C. albicans CCH 442, unit assumed
[5] = tested on: PSEUDOMONAS CEPACIA 296I; assay: as above; settings: P. cepacia 296I, unit assumed
[6] = tested on: M[…] ATCC 4698; assay: as above; settings: M. luteus ATCC 4698, unit assumed
How it was run: (§1)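 MIC was read visually as the lowest drug level with no growth, a slight haze or sparsely isolated colonies relative to a compound-free growth control. Organisms were spotted at 1:100 dilution (1:10 for slow-growing strains) onto Brain Heart Infusion agar containing serial compound dilutions and incubated 20 to 24 hours at 35-37° C.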

[7] = tested on: EN[…] ATCC 8043; assay: as above; settings: E. faecium ATCC 8043, unit assumed
How it was run: as §1

[8] = tested on: M[…] ATCC 9341; assay: as above; settings: M. luteus ATCC 9341, unit assumed
How it was run: as §1

[9] = tested on: STR[…] 508; assay: as above; settings: S. agalactiae CMX 508, unit assumed
How it was run: as §1

[10] = tested on: PSEUDOMONAS AERUGINOSA K799/WT; assay: as above; settings: P. aeruginosa K799/WT, unit assumed
[11] = tested on: ENTEROBACTER AEROGENES ATCC 13048; assay: as above; settings: E. aerogenes ATCC 13048, unit assumed
[12] = tested on: MYCOBACTERIUM SMEGMATIS ATCC 114; assay: as above; settings: M. smegmatis ATCC 114, unit assumed
[13] = tested on: STAPHYLOCOCCUS AUREUS A-5278; assay: as above; settings: S. aureus A-5278, unit assumed
[14] = tested on: ESCHERICHIA COLI SS; assay: as above; settings: E. coli SS, unit assumed
[15] = tested on: PSEUDOMONAS AERUGINOSA DPHD-2862; assay: as above; settings: P. aeruginosa DPHD-2862, unit assumed
[16] = tested on: STAPHYLOCOCCUS EPIDERMIDIS 3519; settings: S. epidermidis 3519; BHI agar; unit assumed
[17] = tested on: ESCHERICHIA COLI KNK 437; settings: E. coli KNK 437; BHI agar; unit assumed
[18] = tested on: STAPHYLOCOCCUS AUREUS A5177; assay: In vitro antibacterial activity, MIC, BHI agar dilution; settings: S. aureus A5177, unit assumed
[19] = tested on: PSEUDOMONAS AERUGINOSA K799/61; assay: as above; settings: P. aeruginosa K799/61, unit assumed
[20] = tested on: STAPHYLOCOCCUS AUREUS CMX 553; assay: as above; settings: S. aureus CMX 553, unit assumed
[21] = tested on: PSEUDOMONAS AERUGINOSA 5007; assay: as above; settings: P. aeruginosa 5007, unit assumed
[22] = tested on: STREPTOCOCCUS PYOGENES 930; assay: as above; settings: S. pyogenes 930, unit assumed
[23] = tested on: STREPTOCOCCUS PYOGENES EES61; assay: as above; settings: S. pyogenes EES61, unit assumed
[24] = tested on: STAPHYLOCOCCUS AUREUS 1775; assay: as above; settings: S. aureus 1775, unit assumed
[25] = tested on: KLEBSIELLA PNEUMONIAE ATCC 8045; assay: as above; settings: K. pneumoniae ATCC 8045, unit assumed
[26] = tested on: STAPHYLOCOCCUS AUREUS NCTC10649M; assay: as above; settings: S. aureus NCTC10649M, unit assumed
[27] = tested on: PROVIDENCIA STUARTII CMX 640; settings: P. stuartii CMX 640; BHI agar; unit assumed
[28] = tested on: PSEUDOMONAS AERUGINOSA BMH10; assay: In vitro antibacterial activity, MIC, BHI agar dilution; settings: P. aeruginosa BMH10, unit assumed
[29] = tested on: STREPTOCOCCUS PYOGENES PIU 2548; assay: as above; settings: S. pyogenes PIU 2548, unit assumed
[30] = tested on: STAPHYLOCOCCUS AUREUS ATCC 6538P; assay: as above; settings: S. aureus ATCC 6538P, 35-37° C., 20 to 24 hours, unit assumed
[31] = tested on: ESCHERICHIA COLI DC-2; assay: as above; settings: E. coli DC-2, unit assumed
[32] = tested on: PSEUDOMONAS AERUGINOSA DPHD-5263; assay: as above; settings: P. aeruginosa DPHD-5263, unit assumed
[33] = tested on: ESCHERICHIA COLI JUHL; settings: E. coli JUHL; BHI agar; unit assumed

SMILES	MIC [1] [µg/mL]	MIC [2] [µg/mL]	MIC [3] [µg/mL]	MIC [4] [µg/mL]	MIC [5] [µg/mL]	MIC [6] [µg/mL]	MIC [7] [µg/mL]	MIC [8] [µg/mL]	MIC [9] [µg/mL]	MIC [10] [µg/mL]	MIC [11] [µg/mL]	MIC [12] [µg/mL]	MIC [13] [µg/mL]	MIC [14] [µg/mL]	MIC [15] [µg/mL]	MIC [16] [µg/mL]	MIC [17] [µg/mL]	MIC [18] [µg/mL]	MIC [19] [µg/mL]	MIC [20] [µg/mL]	further results
CC[C@H]1OC(=O)[C@H](C)C(=O)[C@H](C)[C@@H](O[C@@H]2O[C@H](C)C[C@H](N(C)C)[C@H]2O)[C@](C)(OC)C[C@@H](C)C2=NCC(CN(C)Cc3ccccc3)N3C(=O)O[C@@]1(C)[C@H]3[C@H]2C (stereo partly drawn) [Example 132]	0.01 (≈ 0.013 µM)	50 (≈ 64.9 µM)	0.39 (≈ 0.506 µM)	> 100	> 100	0.2 (≈ 0.259 µM)	0.1 (≈ 0.13 µM)	0.05 (≈ 0.0649 µM)	0.02 (≈ 0.0259 µM)	100 (≈ 130 µM)	> 100	0.78 (≈ 1.01 µM)	100 (≈ 130 µM)	0.78 (≈ 1.01 µM)	> 100	0.39 (≈ 0.506 µM)	> 100	0.39 (≈ 0.506 µM)	1.56 (≈ 2.02 µM)	0.39 (≈ 0.506 µM)	MIC [21]: > 100 µg/mL; MIC [22]: 50 µg/mL (≈ 64.9 µM); MIC [23]: 0.02 µg/mL (≈ 0.0259 µM); MIC [24]: 100 µg/mL (≈ 130 µM); MIC [25]: > 100 µg/mL; MIC [26]: 0.39 µg/mL (≈ 0.506 µM); MIC [27]: > 100 µg/mL; MIC [28]: > 100 µg/mL; MIC [29]: 0.78 µg/mL (≈ 1.01 µM); MIC [30]: 0.39 µg/mL (≈ 0.506 µM); MIC [31]: 100 µg/mL (≈ 130 µM); MIC [32]: > 100 µg/mL; MIC [33]: 100 µg/mL (≈ 130 µM)
CCC1OC(=O)C(C)C(=O)C(C)C(OC2OC(C)CC(N(C)C)C2O)C(C)(OC)CC(C)C2=NCC(C)(CN(C)Cc3ccccc3)N3C(=O)OC1(C)C3C2C (stereo not drawn) [Example 134]	0.01 (≈ 0.0127 µM)	50 (≈ 63.7 µM)	0.78 (≈ 0.994 µM)	> 100	> 100	0.78 (≈ 0.994 µM)	0.1 (≈ 0.127 µM)	0.05 (≈ 0.0637 µM)	0.02 (≈ 0.0255 µM)	> 100	> 100	0.78 (≈ 0.994 µM)	> 100	1.56 (≈ 1.99 µM)	> 100	0.78 (≈ 0.994 µM)	> 100	0.78 (≈ 0.994 µM)	1.56 (≈ 1.99 µM)	0.78 (≈ 0.994 µM)	MIC [21]: > 100 µg/mL; MIC [22]: > 100 µg/mL; MIC [23]: 0.02 µg/mL (≈ 0.0255 µM); MIC [24]: > 100 µg/mL; MIC [25]: > 100 µg/mL; MIC [26]: 0.78 µg/mL (≈ 0.994 µM); MIC [27]: > 100 µg/mL; MIC [28]: > 100 µg/mL; MIC [29]: 0.78 µg/mL (≈ 0.994 µM); MIC [30]: 0.78 µg/mL (≈ 0.994 µM); MIC [31]: 100 µg/mL (≈ 127 µM); MIC [32]: > 100 µg/mL; MIC [33]: 100 µg/mL (≈ 127 µM)
CC[C@H]1OC(=O)[C@H](C)C(=O)[C@H](C)[C@@H](O[C@@H]2O[C@H](C)C[C@H](N(C)C)[C@H]2O)[C@](C)(OC)C[C@@H](C)C2=NC[C@H](COC(=O)c3ccncc3)N3C(=O)O[C@@]1(C)[C@H]3[C@H]2C [Example 138]	0.01 (≈ 0.0129 µM)	50 (≈ 64.7 µM)	0.39 (≈ 0.505 µM)	> 100	100 (≈ 129 µM)	0.39 (≈ 0.505 µM)	0.1 (≈ 0.129 µM)	0.02 (≈ 0.0259 µM)	0.1 (≈ 0.129 µM)	> 100	> 100	3.1 (≈ 4.01 µM)	> 100	0.78 (≈ 1.01 µM)	> 100	0.39 (≈ 0.505 µM)	50 (≈ 64.7 µM)	0.39 (≈ 0.505 µM)	0.78 (≈ 1.01 µM)	0.39 (≈ 0.505 µM)	MIC [21]: > 100 µg/mL; MIC [22]: > 100 µg/mL; MIC [23]: 0.02 µg/mL (≈ 0.0259 µM); MIC [24]: > 100 µg/mL; MIC [25]: > 100 µg/mL; MIC [26]: 0.39 µg/mL (≈ 0.505 µM); MIC [27]: > 100 µg/mL; MIC [28]: > 100 µg/mL; MIC [29]: 1.56 µg/mL (≈ 2.02 µM); MIC [30]: 0.39 µg/mL (≈ 0.505 µM); MIC [31]: 50 µg/mL (≈ 64.7 µM); MIC [32]: > 100 µg/mL; MIC [33]: 50 µg/mL (≈ 64.7 µM)
CC[C@H]1OC(=O)[C@H](C)C(=O)[C@H](C)[C@@H](O[C@@H]2O[C@H](C)C[C@H](N(C)C)[C@H]2O)[C@](C)(OC)C[C@@H](C)C2=NCC(COC(=O)c3ccc([N+](=O)[O-])cc3)N3C(=O)O[C@@]1(C)[C@H]3[C@H]2C (stereo partly drawn) [Example 140]	≤ 0.005	25 (≈ 30.6 µM)	0.1 (≈ 0.122 µM)	> 100	25 (≈ 30.6 µM)	0.1 (≈ 0.122 µM)	0.05 (≈ 0.0612 µM)	0.01 (≈ 0.0122 µM)	0.02 (≈ 0.0245 µM)	> 100	> 100	0.39 (≈ 0.477 µM)	> 100	0.78 (≈ 0.955 µM)	> 100	0.1 (≈ 0.122 µM)	50 (≈ 61.2 µM)	0.1 (≈ 0.122 µM)	0.39 (≈ 0.477 µM)	0.1 (≈ 0.122 µM)	MIC [21]: > 100 µg/mL; MIC [22]: 50 µg/mL (≈ 61.2 µM); MIC [23]: ≤ 0.005 µg/mL; MIC [24]: > 100 µg/mL; MIC [25]: > 100 µg/mL; MIC [26]: 0.1 µg/mL (≈ 0.122 µM); MIC [27]: > 100 µg/mL; MIC [28]: > 100 µg/mL; MIC [29]: 0.2 µg/mL (≈ 0.245 µM); MIC [30]: 0.1 µg/mL (≈ 0.122 µM); MIC [31]: 50 µg/mL (≈ 61.2 µM); MIC [32]: > 100 µg/mL; MIC [33]: 50 µg/mL (≈ 61.2 µM)
